Measured values reported in ChEMBL document CHEMBL5696442, “Discovery of type II inhibitors of TGFβ-activated kinase 1 (TAK1) and mitogen-activated protein kinase kinase kinase kinase 2 (MAP4K2)” (J Med Chem, 2015).
Active and inactive are the calls of the source. The rule behind the calls is not given here.

Assays:
[1] = target: STE20-like serine/threonine-protein kinase (Homo sapiens) (UniProt Q9H2G2); test: Inhibition of SLK Lys2 labeling site harbouring IIHRDLKAGNILFTLDGDIK in human Huh-7 cell lysate at 1 uM by KiNativ Profiling analysis relative to control; format: subcellular
[2] = target: Microtubule-associated serine/threonine-protein kinase 2 (Homo sapiens) (UniProt Q6P0Q8); test: Inhibition of MAST2 Lys2 labeling site harbouring DLKPDNLLITSMGHIK in human Huh-7 cells at 1 uM by KiNativ Profiling analysis relative to control; format: cell-based
[3] = target: Tyrosine-protein kinase ABL2 (Homo sapiens, UniProt P42684); test: Inhibition of ARG ACT labeling site in human A-375 cells at 0.05 uM by KiNativ Profiling analysis relative to control; format: cell-based
Chain of Tyrosine-protein kinase ABL2 (P42684 whole entry): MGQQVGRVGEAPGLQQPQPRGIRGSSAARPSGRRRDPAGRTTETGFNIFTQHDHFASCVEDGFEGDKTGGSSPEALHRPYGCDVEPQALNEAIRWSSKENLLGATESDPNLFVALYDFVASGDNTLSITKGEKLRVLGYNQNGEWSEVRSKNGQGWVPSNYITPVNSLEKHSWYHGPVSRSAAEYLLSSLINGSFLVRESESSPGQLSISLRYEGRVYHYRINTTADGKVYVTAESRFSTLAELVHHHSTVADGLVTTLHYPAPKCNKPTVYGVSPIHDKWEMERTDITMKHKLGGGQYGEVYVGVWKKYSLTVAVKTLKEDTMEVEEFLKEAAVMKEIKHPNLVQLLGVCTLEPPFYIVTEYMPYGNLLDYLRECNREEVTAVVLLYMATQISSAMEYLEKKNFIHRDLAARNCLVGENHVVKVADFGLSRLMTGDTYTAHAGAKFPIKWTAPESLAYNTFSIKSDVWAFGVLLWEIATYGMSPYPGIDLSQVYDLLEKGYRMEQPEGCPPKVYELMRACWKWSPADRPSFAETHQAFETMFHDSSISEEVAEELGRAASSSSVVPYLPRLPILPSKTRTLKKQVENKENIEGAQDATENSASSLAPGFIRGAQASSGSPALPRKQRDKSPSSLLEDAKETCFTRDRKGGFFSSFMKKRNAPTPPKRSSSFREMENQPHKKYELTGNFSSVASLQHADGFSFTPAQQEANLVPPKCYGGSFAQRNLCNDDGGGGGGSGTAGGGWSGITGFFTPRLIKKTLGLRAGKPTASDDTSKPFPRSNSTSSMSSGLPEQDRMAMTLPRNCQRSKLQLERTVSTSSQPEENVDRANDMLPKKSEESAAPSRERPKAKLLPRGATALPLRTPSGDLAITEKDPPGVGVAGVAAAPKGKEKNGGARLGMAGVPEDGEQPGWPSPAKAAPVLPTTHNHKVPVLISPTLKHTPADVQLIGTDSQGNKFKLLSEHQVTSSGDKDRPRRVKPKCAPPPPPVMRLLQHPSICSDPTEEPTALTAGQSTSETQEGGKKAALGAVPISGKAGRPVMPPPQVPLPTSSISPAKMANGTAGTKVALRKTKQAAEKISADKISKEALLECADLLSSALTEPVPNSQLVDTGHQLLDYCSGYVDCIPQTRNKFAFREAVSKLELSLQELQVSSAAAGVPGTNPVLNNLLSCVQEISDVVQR

[4] = target: Cyclin-dependent kinase 17 (Homo sapiens) (UniProt Q00537); test: Inhibition of PCTAIRE2 K2 labeling site in human Huh-7 cells at 1 uM by KiNativ Profiling analysis relative to control; format: cell-based
Chain of Cyclin-dependent kinase 17 (Homo sapiens) (Q00537 whole entry, looked up, the tested form may be a part): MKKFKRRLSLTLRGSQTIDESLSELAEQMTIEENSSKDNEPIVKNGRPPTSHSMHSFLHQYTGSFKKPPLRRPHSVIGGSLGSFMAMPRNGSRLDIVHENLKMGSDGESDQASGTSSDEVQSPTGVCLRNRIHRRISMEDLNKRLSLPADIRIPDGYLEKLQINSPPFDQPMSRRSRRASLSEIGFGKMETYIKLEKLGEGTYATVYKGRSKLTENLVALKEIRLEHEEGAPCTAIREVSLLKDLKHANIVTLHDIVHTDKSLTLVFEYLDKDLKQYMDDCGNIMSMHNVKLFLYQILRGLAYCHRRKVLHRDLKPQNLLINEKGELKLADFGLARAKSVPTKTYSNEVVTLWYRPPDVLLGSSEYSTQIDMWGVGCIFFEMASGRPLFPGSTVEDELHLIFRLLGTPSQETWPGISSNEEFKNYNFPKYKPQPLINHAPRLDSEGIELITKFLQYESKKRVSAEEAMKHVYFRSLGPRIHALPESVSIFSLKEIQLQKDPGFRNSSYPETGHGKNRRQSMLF

[5] = target: Ribosomal protein S6 kinase alpha-6 (Homo sapiens) (UniProt Q9UK32); test: Inhibition of C-terminal RPS6KA6 kinase domain 2 (unknown origin) at 10 uM by Ambit Kinomescan binding assay
Chain of Ribosomal protein S6 kinase alpha-6 (Homo sapiens) (Q9UK32 whole entry, the tested form may be a part): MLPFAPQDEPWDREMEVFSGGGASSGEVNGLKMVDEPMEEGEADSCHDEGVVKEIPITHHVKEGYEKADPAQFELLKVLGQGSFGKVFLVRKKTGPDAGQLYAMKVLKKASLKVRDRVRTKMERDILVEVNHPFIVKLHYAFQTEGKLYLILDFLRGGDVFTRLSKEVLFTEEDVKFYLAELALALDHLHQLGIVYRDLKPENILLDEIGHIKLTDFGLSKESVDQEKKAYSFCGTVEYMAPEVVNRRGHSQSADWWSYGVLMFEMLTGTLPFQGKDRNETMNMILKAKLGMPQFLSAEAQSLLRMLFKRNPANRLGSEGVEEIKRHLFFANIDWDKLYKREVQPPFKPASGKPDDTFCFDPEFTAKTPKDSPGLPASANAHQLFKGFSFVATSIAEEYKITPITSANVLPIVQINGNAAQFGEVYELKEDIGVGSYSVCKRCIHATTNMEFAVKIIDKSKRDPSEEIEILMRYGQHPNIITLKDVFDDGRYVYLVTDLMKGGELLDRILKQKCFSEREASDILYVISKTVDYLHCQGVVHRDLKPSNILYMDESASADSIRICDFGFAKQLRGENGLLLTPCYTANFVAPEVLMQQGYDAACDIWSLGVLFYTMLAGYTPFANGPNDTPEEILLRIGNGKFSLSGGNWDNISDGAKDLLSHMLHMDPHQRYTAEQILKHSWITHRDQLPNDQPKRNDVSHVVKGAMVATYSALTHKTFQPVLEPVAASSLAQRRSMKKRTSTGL

[6] = test system: Tyrosine-protein kinase ABL1 (Homo sapiens), P00519 [M351T]; test: Inhibition of ABL1 M351T mutant (unknown origin) at 10 uM by Ambit Kinomescan binding assay relative to control
[7] = target: Mitogen-activated protein kinase 1 (Homo sapiens) (UniProt P28482); test: Inhibition of ERK2 (unknown origin) at 10 uM by Ambit Kinomescan binding assay
Chain of Mitogen-activated protein kinase 1 (Homo sapiens) (P28482 whole entry, the tested form may be a part): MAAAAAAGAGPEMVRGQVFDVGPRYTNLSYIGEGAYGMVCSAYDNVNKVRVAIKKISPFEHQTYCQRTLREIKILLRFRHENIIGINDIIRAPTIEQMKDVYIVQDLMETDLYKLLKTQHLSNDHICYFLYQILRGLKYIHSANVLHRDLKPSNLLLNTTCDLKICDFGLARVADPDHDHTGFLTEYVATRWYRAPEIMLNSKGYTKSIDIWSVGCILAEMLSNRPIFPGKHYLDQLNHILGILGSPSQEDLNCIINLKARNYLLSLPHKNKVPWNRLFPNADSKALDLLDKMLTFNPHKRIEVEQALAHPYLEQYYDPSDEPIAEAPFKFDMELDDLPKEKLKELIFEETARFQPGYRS

[8] = target: Ribosomal protein S6 kinase alpha-3 (Homo sapiens) (UniProt P51812); test: Inhibition of RSK2 Domain 1 ACT labeling site harbouring LTDFGLSKESIDHEKK in human Huh-7 cells at 10 uM by KiNativ Profiling analysis relative to control; format: cell-based
[9] = target: T1, Eukaryotic elongation factor 2 kinase (Homo sapiens) (UniProt O00418); test: Inhibition of eEF2K ATP labeling site harbouring YIKYNSNSGFVR in human A-375 cells at 5 uM by KiNativ Profiling analysis relative to control; format: cell-based
T1 sequence (whole entry): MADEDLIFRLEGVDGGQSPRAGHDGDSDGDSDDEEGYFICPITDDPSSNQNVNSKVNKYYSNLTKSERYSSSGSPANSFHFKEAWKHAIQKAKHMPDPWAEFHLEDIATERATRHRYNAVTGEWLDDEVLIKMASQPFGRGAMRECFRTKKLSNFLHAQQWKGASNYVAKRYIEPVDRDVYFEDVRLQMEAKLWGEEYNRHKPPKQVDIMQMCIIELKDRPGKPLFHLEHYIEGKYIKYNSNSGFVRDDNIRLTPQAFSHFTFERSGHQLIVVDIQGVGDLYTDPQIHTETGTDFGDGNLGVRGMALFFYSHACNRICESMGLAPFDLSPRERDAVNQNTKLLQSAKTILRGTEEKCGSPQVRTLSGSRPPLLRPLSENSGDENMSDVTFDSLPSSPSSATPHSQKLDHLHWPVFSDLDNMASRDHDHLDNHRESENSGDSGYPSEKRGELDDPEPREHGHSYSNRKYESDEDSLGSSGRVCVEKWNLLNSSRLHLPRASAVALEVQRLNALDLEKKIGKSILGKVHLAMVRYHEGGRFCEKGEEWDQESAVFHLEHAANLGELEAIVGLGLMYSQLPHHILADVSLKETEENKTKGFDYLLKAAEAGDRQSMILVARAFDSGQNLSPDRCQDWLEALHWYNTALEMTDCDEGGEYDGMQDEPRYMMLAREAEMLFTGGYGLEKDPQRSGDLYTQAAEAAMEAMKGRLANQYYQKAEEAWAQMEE

[10] = target: Rho-associated protein kinase (Homo sapiens) (UniProt O75116+Q13464); test: Inhibition of ROCK1/2 K2 labeling site in human Huh-7 cells at 10 uM by KiNativ Profiling analysis relative to control; format: cell-based
[11] = target: T2, Serine/threonine-protein kinase 3 (Homo sapiens) (UniProt Q13188); test: Inhibition of MST2 K1 labeling site in human Huh-7 cells at 1 uM by KiNativ Profiling analysis relative to control; format: cell-based
T2 sequence (whole entry): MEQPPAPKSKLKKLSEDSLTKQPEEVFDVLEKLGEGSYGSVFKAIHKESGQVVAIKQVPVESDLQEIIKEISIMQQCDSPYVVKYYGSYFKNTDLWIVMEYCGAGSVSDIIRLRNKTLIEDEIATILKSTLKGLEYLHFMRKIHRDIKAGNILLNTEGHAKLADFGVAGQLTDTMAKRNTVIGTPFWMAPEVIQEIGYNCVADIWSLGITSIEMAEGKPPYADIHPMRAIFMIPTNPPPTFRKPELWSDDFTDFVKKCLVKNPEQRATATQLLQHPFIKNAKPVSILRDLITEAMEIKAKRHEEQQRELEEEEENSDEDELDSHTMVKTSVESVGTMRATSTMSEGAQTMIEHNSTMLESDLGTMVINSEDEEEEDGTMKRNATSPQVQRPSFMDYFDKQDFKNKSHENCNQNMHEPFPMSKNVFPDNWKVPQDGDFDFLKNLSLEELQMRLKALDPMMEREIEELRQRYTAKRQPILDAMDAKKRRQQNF

[12] = test system: Mast/stem cell growth factor receptor Kit (Homo sapiens), P10721 [D816V]; test: Inhibition of KIT D816V mutant (unknown origin) at 1 uM by Ambit Kinomescan binding assay relative to control; values are per cent of control
Chain of Mast/stem cell growth factor receptor Kit (Homo sapiens), P10721 [D816V] (P10721 whole entry D816V): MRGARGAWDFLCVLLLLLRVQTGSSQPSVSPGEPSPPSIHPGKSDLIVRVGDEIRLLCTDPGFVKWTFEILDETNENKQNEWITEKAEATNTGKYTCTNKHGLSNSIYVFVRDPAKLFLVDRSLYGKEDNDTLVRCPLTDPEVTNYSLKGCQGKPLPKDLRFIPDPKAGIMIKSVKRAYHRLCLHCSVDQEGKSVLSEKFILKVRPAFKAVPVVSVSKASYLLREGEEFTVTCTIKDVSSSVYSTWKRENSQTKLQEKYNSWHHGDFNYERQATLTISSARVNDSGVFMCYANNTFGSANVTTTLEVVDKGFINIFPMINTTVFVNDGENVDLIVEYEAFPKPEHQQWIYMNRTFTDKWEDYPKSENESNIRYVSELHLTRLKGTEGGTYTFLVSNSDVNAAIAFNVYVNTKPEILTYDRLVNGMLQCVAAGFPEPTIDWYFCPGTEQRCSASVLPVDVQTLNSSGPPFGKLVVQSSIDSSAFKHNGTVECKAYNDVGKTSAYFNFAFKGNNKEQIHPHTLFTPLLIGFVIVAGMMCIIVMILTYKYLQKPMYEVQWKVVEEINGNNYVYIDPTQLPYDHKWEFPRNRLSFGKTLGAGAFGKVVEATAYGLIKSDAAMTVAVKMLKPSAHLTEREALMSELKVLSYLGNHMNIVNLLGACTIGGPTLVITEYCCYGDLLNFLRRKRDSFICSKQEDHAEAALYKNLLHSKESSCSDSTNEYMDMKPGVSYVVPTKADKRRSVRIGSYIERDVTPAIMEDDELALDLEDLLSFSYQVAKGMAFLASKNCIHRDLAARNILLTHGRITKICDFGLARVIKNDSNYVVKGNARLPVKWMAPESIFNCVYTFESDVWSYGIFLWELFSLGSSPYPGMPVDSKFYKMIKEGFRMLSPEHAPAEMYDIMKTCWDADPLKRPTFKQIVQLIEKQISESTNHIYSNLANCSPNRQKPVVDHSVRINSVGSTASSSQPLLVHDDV

[13] = target: Cyclin-dependent kinase 11A (Homo sapiens) (UniProt Q9UQ88); test: Inhibition of CDC2L2 (unknown origin) at 1 uM by Ambit Kinomescan binding assay relative to control; values are per cent of control
[14] = test system: Mast/stem cell growth factor receptor Kit (Homo sapiens), P10721 [L576P]; test: Inhibition of KIT L576P mutant (unknown origin) at 1 uM by Ambit Kinomescan binding assay relative to control; values are per cent of control
Chain of Mast/stem cell growth factor receptor Kit (Homo sapiens), P10721 [L576P] (P10721 whole entry L576P): as the sequence (P10721 whole entry D816V) above, with L576P, V816D counted along it

[15] = target: Serine/threonine-protein kinase PLK3 (Homo sapiens) (UniProt Q9H4B4); test: Inhibition of PLK3 (unknown origin) at 1 uM by Ambit Kinomescan binding assay relative to control; values are per cent of control
[16] = target: Serine/threonine-protein kinase SIK2 (Homo sapiens) (UniProt Q9H0K1); test: Inhibition of SIK2 (unknown origin) at 1 uM by Ambit Kinomescan binding assay relative to control
Chain of Serine/threonine-protein kinase SIK2 (Homo sapiens) (Q9H0K1 whole entry, looked up): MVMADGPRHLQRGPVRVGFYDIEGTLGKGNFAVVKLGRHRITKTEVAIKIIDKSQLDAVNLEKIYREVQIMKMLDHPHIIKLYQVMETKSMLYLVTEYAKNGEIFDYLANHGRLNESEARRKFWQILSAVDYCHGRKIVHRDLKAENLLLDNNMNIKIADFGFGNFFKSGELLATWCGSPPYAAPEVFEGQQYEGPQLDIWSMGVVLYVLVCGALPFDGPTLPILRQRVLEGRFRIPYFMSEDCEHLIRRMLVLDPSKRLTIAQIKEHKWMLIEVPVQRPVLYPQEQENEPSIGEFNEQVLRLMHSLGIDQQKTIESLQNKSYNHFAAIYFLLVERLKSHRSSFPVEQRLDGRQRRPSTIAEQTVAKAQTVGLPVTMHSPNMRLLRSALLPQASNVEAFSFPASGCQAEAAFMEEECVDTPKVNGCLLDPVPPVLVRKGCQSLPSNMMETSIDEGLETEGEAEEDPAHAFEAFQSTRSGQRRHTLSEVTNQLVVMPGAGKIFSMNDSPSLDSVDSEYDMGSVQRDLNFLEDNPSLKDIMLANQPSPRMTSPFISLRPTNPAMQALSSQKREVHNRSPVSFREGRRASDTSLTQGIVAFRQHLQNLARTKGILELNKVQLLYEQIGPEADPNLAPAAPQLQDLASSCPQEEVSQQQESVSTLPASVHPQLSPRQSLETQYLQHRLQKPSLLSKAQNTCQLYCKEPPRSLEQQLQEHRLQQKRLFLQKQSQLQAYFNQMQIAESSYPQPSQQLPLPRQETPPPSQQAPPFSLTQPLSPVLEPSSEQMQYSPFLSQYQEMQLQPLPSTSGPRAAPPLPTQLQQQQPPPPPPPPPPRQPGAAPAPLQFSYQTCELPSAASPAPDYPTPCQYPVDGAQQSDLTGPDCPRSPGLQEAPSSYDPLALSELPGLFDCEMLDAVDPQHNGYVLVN

[17] = target: RAC-alpha serine/threonine-protein kinase (Homo sapiens) (UniProt P31749); test: Inhibition of AKT1 ATP Loop labeling site in human A-375 cells at 5 uM by KiNativ Profiling analysis relative to control; format: cell-based
[18] = target: LIM domain kinase 1 (Homo sapiens) (UniProt P53667); test: Inhibition of LIMK1 (unknown origin) at 1 uM by Ambit Kinomescan binding assay relative to control; values are per cent of control

CNc1cc(Oc2cc(C(=O)Nc3cc(N4CCN(C)CC4)cc(C(F)(F)F)c3)ccc2C)ncn1 was tested. Which inhibition [1] did it give?
Its inhibition is 24.8%.

What about the inhibition [2] of the same compound?
The inhibition was 53.8%.

CCN1CCN(Cc2ccc(NC(=O)c3ccc(C)c(Oc4ccnc5[nH]ccc45)c3)cc2C(F)(F)F)CC1 was tested. Which inhibition [3] did it give?
The inhibition was 88.5%.

What about the inhibition [4] of the same compound?
The inhibition was -3.4%.

And the inhibition [5]?
The inhibition was “inactive”.

What about the inhibition [6] of the same compound?
Its inhibition is 0.35%.

And the inhibition [7]?
Its inhibition is “inactive”.

And the inhibition [8]?
Its inhibition is -8%.

What about the inhibition [9] of the same compound?
The inhibition was -2.4%.

And the inhibition [10]?
Its inhibition is 4.1%.

What about the inhibition [11] of the same compound?
The inhibition was 16.2%.

With CCN1CCN(Cc2ccc(NC(=O)c3ccc(C)c(/C=C/c4cnc5[nH]ccc5c4OC)c3)cc2C(F)(F)F)CC1 as the compound, how does the residual activity [12] read?
The residual activity was 8.8%.

What about the residual activity [13] of the same compound?
Its residual activity is 70%.

And the residual activity [14]?
Its residual activity is 0.15%.

What about the residual activity [15] of the same compound?
Its residual activity is 100%.

And the inhibition [16]?
Its inhibition is 26%.

And the inhibition [17]?
Its inhibition is 10.4%.

What about the residual activity [18] of the same compound?
Its residual activity is 25%.
